Measured values from paper PMC2947195 (Biochemical Journal, 2010).
Substitutions are numbered along the chain they refer to. Like-named read-outs stand apart in the source and are kept apart here.

Columns and labels:
Experiment in all cases: Competitive inhibition of [3H]MTX uptake
Assay type in all cases: cell-based
S313T hRFC = biological target: T1, S313T hRFC (Homo sapiens, UniProt P41440, S313T); conditions: for decrease of Ki compared with wt hRFC: S313T hRFC versus wt hRFC
T1 sequence (P41440 1-591 S313T): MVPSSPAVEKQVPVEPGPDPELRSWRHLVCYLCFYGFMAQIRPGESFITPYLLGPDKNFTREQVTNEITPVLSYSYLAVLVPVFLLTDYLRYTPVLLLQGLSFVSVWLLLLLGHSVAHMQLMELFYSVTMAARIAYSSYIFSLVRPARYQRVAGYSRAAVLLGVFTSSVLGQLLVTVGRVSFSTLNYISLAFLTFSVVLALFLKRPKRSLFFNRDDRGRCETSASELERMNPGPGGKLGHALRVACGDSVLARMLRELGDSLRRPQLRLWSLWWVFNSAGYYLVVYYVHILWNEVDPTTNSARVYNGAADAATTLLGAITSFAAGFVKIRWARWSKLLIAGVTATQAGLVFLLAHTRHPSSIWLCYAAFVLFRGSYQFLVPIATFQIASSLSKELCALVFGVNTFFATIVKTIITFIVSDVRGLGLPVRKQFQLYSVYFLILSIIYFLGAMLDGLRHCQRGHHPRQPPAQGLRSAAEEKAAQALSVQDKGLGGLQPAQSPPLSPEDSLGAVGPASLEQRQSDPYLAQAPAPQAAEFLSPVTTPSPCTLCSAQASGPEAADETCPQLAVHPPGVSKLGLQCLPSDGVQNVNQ

wt hRFC = biological target: T2, wt hRFC (Homo sapiens, UniProt P41440)
T2 sequence (P41440 1-591): T1 sequence (P41440 1-591 S313T) with T313S

S313A hRFC = biological target: T3, S313A hRFC (Homo sapiens, UniProt P41440, S313A)
T3 sequence (P41440 1-591 S313A): T1 sequence (P41440 1-591 S313T) with T313A

Row | Compound | decrease of Ki compared with wt hRFC (S313T hRFC) | Ki (wt hRFC) | Ki (S313A hRFC) | Ki (S313T hRFC) | decrease of Ki compared with wt hRFC (S313A hRFC; S313A hRFC versus wt hRFC) | increase of Ki compared with wt carrier (S313A hRFC; S313A hRFC versus wt hRFC) | Ki (wt hRFC; wt hRFC, inhibition of [3H]MTX (1 μM) uptake, Dixon plots, mean±S.E.M., n=3) | Ki (S313A hRFC; S313A hRFC, inhibition of [3H]MTX (1 μM) uptake, Dixon plots, mean±S.E.M., n=3) | Ki (S313T hRFC; S313T hRFC, inhibition of [3H]MTX (1 μM) uptake, Dixon plots, mean±S.E.M., n=3)
1 | Cc1nc2ccc(CN(C)c3ccc(C(=O)N[C@@H](CCC(=O)O)C(=O)O)s3)cc2c(=O)[nH]1 [Raltitrexed, N-{5-[N-(3,4-dihydro-2methyl-4-oxyquinazolin-6-ylmethyl)-N-methyl-amino]-2-thienoyl}-L-glutamic acid] | 2–3 fold |  |  |  |  |  |  |  | 
2 | Cc1nc2ccc3ccc(CNc4ccc5c(c4)CN([C@@H](CCC(=O)O)C(=O)O)C5=O)cc3c2c(=O)[nH]1 [GW1843U89, (S)-2-[5-({[1,2-dihydro-3-methyl-1-oxo-benzo(f)quinazolin-9-yl]methyl}amino)1-oxo-2-isoindolinyl] glutaric acid] | 2–3 fold | 2.1 ± 0.01 µM | 2.61 ± 0.5 µM | 0.75 ± 0.06 µM |  |  |  |  | 
3 | Nc1nc2c(c(=O)[nH]1)N(C=O)C(CNc1ccc(C(=O)N[C@@H](CCC(=O)O)C(=O)O)cc1)CN2 (stereo partly drawn) [Leucovorin, (6R,S)-5-formyl tetrahydrofolate] | 2–3 fold | 18.7 ± 1.54 µM | 12.3 ± 0.88 µM | 7.74 ± 0.66 µM | 2–3 fold |  |  |  | 
4 | C#CCN(Cc1cc2c(=O)[nH]c(C)nc2cc1C)c1ccc(C(=O)N[C@@H](CCc2nnn[nH]2)C(=O)O)c(F)c1 [ZD9331, (2S)-2-{O-fluoro-p-[N-(2,7dimethyl-4-oxo-3,4-dihydro-quinazolin-6-ylmethyl)-N-(prop-2ynyl)amino]benzamido}-4-(tetrazol-5-yl)-butyric acid] |  | 4.42 ± 0.93 µM | 2.96 ± 0.52 µM | 2.31 ± 0.18 µM |  |  |  |  | 

Second part, the compound after the results:

Row | decrease of Ki compared with wt hRFC (S313T hRFC) | Ki (wt hRFC) | Ki (S313A hRFC) | Ki (S313T hRFC) | decrease of Ki compared with wt hRFC (S313A hRFC; S313A hRFC versus wt hRFC) | increase of Ki compared with wt carrier (S313A hRFC; S313A hRFC versus wt hRFC) | Ki (wt hRFC; wt hRFC, inhibition of [3H]MTX (1 μM) uptake, Dixon plots, mean±S.E.M., n=3) | Ki (S313A hRFC; S313A hRFC, inhibition of [3H]MTX (1 μM) uptake, Dixon plots, mean±S.E.M., n=3) | Ki (S313T hRFC; S313T hRFC, inhibition of [3H]MTX (1 μM) uptake, Dixon plots, mean±S.E.M., n=3) | Compound
5 | 2–3 fold | 7.03 ± 0.02 µM | 3.43 ± 0.58 µM | 2.75 ± 0.15 µM | 2–3 fold |  |  |  |  | Nc1nc(N)c2nc(CNc3ccc(C(=O)N[C@@H](CCC(=O)O)C(=O)O)cc3)cnc2n1 [Aminopterin, aminopterin]
6 |  | 194 ± 5.45 µM | 435 ± 82.7 µM | 237 ± 58.4 µM |  | ~ 2 fold |  |  |  | Nc1nc(=O)c2nc(CNc3ccc(C(=O)N[C@@H](CCC(=O)O)C(=O)O)cc3)cnc2[nH]1 [Folic acid, folic acid]
7 | 2–3 fold |  |  |  | 2–3 fold |  |  |  |  | Nc1nc2[nH]cc(CCc3ccc(C(=O)N[C@@H](CCC(=O)O)C(=O)O)cc3)c2c(=O)[nH]1 [Pemetrexed, N-{4-[2(2-amino-3,4-dihydro-4-oxo-7H-pyrrolo[2,3-d]pyrimidin-5-yl)ethyl]benzoyl}-L-glutamic acid]
8 |  |  |  |  |  |  | 4.56 ± 0.97 µM | 3.13 ± 0.17 µM | 2.86 ± 0.85 µM | Nc1nc(N)c2nc(CNc3ccc(C(=O)N[C@@H](CCCNC(=O)c4ccccc4C(=O)O)C(=O)O)cc3)cnc2n1 [PT523, N^α-(4-amino-4-deoxypteroyl)-N^δ-hemiphthaloyl-L-ornithine]
9 |  | 5.48 ± 1.1 µM | 4.25 ± 0.53 µM | 2.23 ± 0.38 µM |  |  |  |  |  | CCC(Cc1cnc2nc(N)nc(N)c2n1)c1ccc(C(=O)N[C@@H](CCC(=O)O)C(=O)O)cc1 (stereo partly drawn) [Edatrexate, 10-ethyl-10-deazaaminopterin]
